US8669380B2, “Dioxa-bicyclo[3.2.1]octane-2,3,4-triol derivatives” (Pfizer Inc., priority 2009, dated 2014)
Values joined by “and” are separate entries in the source; they are usually repeats but may differ in a detail not shown here. Equal entries are not always repeated. Where two headings read alike, the source gives them in different places.

Experiments:
[1] = target: hSGLT1 (Homo sapiens (Human), UniProt P13866); assay: hSGLT1 inhibition (Table 1); assay type: cell-based; details: individual runs (Run No.)
hSGLT1, sequence (P13866 whole entry): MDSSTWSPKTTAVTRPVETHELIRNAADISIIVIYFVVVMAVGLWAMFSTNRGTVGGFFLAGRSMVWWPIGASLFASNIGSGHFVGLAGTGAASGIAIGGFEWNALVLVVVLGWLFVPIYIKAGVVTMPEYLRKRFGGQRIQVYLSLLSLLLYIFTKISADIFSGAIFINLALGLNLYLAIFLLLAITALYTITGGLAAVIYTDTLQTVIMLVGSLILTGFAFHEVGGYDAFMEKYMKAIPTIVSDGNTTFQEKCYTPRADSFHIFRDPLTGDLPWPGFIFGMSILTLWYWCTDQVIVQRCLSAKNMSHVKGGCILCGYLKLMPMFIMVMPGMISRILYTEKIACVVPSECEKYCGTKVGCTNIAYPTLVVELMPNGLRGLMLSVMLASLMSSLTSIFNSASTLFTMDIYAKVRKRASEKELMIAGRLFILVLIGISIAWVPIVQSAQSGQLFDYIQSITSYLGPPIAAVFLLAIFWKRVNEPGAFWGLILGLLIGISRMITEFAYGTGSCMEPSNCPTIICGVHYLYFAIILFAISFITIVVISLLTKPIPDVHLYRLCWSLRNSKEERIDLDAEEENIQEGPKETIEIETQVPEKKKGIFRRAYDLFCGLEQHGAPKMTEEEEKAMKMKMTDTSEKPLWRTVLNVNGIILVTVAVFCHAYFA

[2] = target: human SGLT2 (Homo sapiens (Human), UniProt P31639); assay: SGLT2 functional assay: inhibition of AMG uptake in CHO-FlpIn cells stably expressing human SGLT2; assay type: cell-based; details: read-out: hSGLT2 IC50
human SGLT2, sequence (P31639 whole entry): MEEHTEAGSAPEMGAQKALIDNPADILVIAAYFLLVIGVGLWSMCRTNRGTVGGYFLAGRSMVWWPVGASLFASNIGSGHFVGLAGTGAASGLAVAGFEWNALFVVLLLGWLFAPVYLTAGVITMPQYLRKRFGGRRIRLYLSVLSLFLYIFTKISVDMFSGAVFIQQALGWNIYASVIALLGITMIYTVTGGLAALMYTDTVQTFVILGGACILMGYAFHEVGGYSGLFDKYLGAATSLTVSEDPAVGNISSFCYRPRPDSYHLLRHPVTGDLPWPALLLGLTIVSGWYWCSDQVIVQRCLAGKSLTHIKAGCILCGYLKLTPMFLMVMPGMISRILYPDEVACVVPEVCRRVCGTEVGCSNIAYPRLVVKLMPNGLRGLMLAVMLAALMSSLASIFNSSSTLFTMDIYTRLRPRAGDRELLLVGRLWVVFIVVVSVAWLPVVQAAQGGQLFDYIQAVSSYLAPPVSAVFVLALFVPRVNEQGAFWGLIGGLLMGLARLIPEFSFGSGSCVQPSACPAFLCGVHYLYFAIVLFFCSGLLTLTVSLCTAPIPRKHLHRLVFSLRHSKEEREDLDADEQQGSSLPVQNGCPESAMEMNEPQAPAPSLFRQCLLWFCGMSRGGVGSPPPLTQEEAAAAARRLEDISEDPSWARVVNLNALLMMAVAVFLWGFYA
From the text: The SGLT2 functional assay was designed to detect the inhibition of methyl-alpha-D glucopyranoside (AMG—a non-metabolizable form of glucose) uptake via the SGLT2 transporter. The SGLT2 transporter recovers glucose from the proximal tubules of the kidney; its inhibition results in sugar wasted in the urine. The positive control compound, Phlorizin, is a known inhibitor of glucose uptake for SGLT2 and was used for comparing the high percent effect of SGLT2 inhibition of the test compounds.
CHO-FlpIn (Invitrogen, Carlsbad, Calif.) cells stably expressing human SGLT2 (pcDNA5/FRT) were plated in Iso-TC 96 well plates (Perkin Elmer, Waltham, Mass.) at a density of 100,000 cells/well in 100 microL of growth media (1:1 F-12/DMEM media (Gibco, Carlsbad, Calif.), 10% FBS (Sigma, St. Louis Mo.), 1× Pen/Strep (Gibco, Carlsbad, Calif.), 600 microg/mL Hygromycin (Invitrogen, Carlsbad, Calif.)). Prior to treating with test compound, confluent cells were serum starved for 2 hours at 37° C. in 1:1 F-12/DMEM media, replacing with fresh F-12/DMEM media after 1 hour. […] After incubation, cells were washed twice with ice cold wash buffer (uptake buffer containing 200 microM Phlorizin (Sigma), air dried and lysed in 30 microL of 200 mM NaOH and 1% SDS buffer on an orbital shaker. Microscint 40 (Perkin Elmer, Waltham, Mass.) was added to the lysed cells (giving a final volume of 200 microL) and mixed by orbital shaking for 30 minutes. Plates were stored in the dark overnight and quantitated in the 1540 Microbeta Trilux (Wallac, Waltham, Mass.) using a normalized protocol for ^14C detection. The percent effect of test compounds to inhibit AMG uptake was calculated using the following calculation: [% Effect=((ZPE−T)/(ZPE−HPE))×100%] where “ZPE” is the corrected counts per minute (CCPM) in control wells containing 0.5% DMSO, “T” is the CCPM in wells containing test compound at various concentrations of the standard curve, and “HPE” is the high percent effect referring to the CCPM in control wells containing 10 microM Phlorizin. The IC50 values were calculated using a dose response equation and are summarized for the compounds tested in Table 1. **For test compound 1, cells were pre-incubated with test compound 1 for 15 minutes prior to the addition of the appropriate amount of AMG (40 nCi AMG [U-^14C] (Perkin Elmer, Waltham, Mass.) in unlabelled AMG (Aldrich, St. Louis, Mo.)) per well yielding a final concentration of 200 microM AMG. […]

[3] = final concentration of 11.33 microM AMG, individual runs (Run No.)

Row | SMILES | IC50 [1] | IC50 [2, 3] | IC50 ([2]; ** final concentration of 200 microM AMG) [nM] | melting point [°C]
1 | CCOC(=O)OC[C@@]12CO[C@@](c3ccc(Cl)c(Cc4ccc(OCC)cc4)c3)(O1)[C@H](O)[C@@H](O)[C@@H]2O [Example 4, Carbonic acid (1R,2S,3S,4R,5S)-5-[4-chloro-3-(4-ethoxy-benzyl)-phenyl]-2,3,4-trihydroxy-6,8-dioxa-bicyclo[3.2.1]oct-1-ylmethyl ester ethyl ester] | 3.36 µM | 45.9 nM |  | 
2 | CCOc1ccc(Cc2cc([C@]34OC[C@](COC(C)=O)(O3)[C@@H](OC(C)=O)[C@H](OC(C)=O)[C@H]4OC(C)=O)ccc2Cl)cc1 [Example 2, Acetic acid (1R,2S,3S,4R,5S)-3,4-diacetoxy-1-acetoxymethyl-5-[4-chloro-3-(4-ethoxy-benzyl)-phenyl]-6,8-dioxa-bicyclo[3.2.1]oct-2-yl ester] | 10 µM | 1090 nM and 1770 nM |  | 134.3

Now from value to compound, other results behind:

Row | IC50 [1] | IC50 [2, 3] | IC50 ([2]; ** final concentration of 200 microM AMG) [nM] | SMILES | melting point [°C]
3 | 1.97 µM and 1.89 µM and 2 µM | 4 nM (2×) and 3 nM |  | CCOc1ccc(Cc2cc([C@]34OC[C@](CF)(O3)[C@@H](O)[C@H](O)[C@H]4O)ccc2Cl)cc1 [Example 8, (1S,2S,3S,4R,5S)-5-[4-Chloro-3-(4-ethoxy-benzyl)-phenyl]-1-fluoromethyl-6,8-dioxa-bicyclo[3.2.1]octane-2,3,4-triol] | 
4 |  |  | 2.6 | OC[C@@]12CO[C@@](c3ccc(Cl)c(Cc4ccc(O)cc4)c3)(O1)[C@H](O)[C@@H](O)[C@@H]2O [Example 1, (1S,2S,3S,4R,5S)-5-[4-chloro-3-(4-hydroxy-benzyl)-phenyl]-1-hydroxymethyl-6,8-dioxa-bicyclo[3.2.1]octane-2,3,4-triol] | 
5 | 3.47 µM and 5.83 µM |  |  | CCOc1ccc(Cc2cc([C@]34OC[C@](COC(C)=O)(O3)[C@@H](O)[C@H](O)[C@H]4O)ccc2Cl)cc1 [Example 3, Acetic acid (1R,2S,3S,4R,5S)-5-[4-chloro-3-(4-ethoxy-benzyl)-phenyl]-2,3,4-trihydoxy-6,8-dioxa-bicyclo[3.2.1]oct-1-ylmethyl ester] | 
